Laboratory results taken from US11207331B2, “Agents, compositions and methods for enhancing neurological function” (University of Southern California, priority 2007, dated 2021).

System: hippocampal neural cells
Experiment: 3H-thymidine uptake in cultured hippocampal neural cells
Type: cell-based, rat
Details: 24 hours, 37° C.
Method: Biochemical analyses of 3H-thymidine uptake, as a measure of DNA synthesis, were used as the experimental vehicle to confirm the morphological observations described in examples 1 and 2. […] Thus, the range for the neurogenic effect of THP on neural cells is quite is sensitive and quite broad.
For these experiments, cultured hippocampal neural cells, derived from embryonic day 18 rat fetuses, were allowed to adhere to polylysine coated plastic cover-slips for 40 min in serum containing medium. Following adhesion, neurons were exposed to […] 3H-thymidine in the presence or absence of 100-500 nM THP and allowed to incubate at 37° C. for 24 hours in the absence or presence of the indicated steroids. Data are expressed as mean+SEM, *p<. 05,**p<0.01, ***p<0.001.
The time course of THP-induced 3H-thymidine incorporation in hippocampal neuronal cells is shown in FIG. 9 where cultured hippocampal nerve cells, derived from embryonic day 18 rat fetuses, were allowed to adhere to polylysine coated plastic cover-slips for 40 min in serum containing medium. Following adhesion, serum containing medium in the presence or absence of 10-250 nM THP plus […] 3H-thymidine and allowed to incubate at 37 for 1, 8 or 24 hours. Data are expressed as mean±SEM, *p<0.05,**p<0.01,***p<0.001.

| Compound | effect on 3H-thymidine incorporation (steroid specificity) |
| --- | --- |
| 5α,3α-pregnan-triol | significant decrease |
| CC(=O)[C@H]1CC[C@H]2[C@@H]3CC[C@@H]4C[C@@H](O)CC[C@]4(C)[C@H]3CC[C@]12C [5ss, 3ss-THP] | no effect |
| 5α, 3P-pregnen-3-one | no effect |
| CC(=O)[C@H]1CC[C@H]2[C@@H]3CCC4=CC(=O)CC[C@]4(C)[C@H]3CC[C@]12C [Progesterone] | modest increase |
| CC(=O)[C@H]1CC[C@H]2[C@@H]3CC[C@H]4C[C@@H](O)CC[C@]4(C)[C@H]3CC[C@]12C [5cc, 3ss-THP] | no effect |
| pregnenolone sulfate | significant decrease |
| 5α,3α-pregnan-diol | significant decrease |
